Target: T1, Cathepsin B (EC 3.4.22.1, from human liver) (Homo sapiens, UniProt P07858)
T1 construct: Cathepsin B (EC 3.4.22.1, from human liver) was purchased from Sigma Chemical Company; purchased Sigma Chemical Company (St. Louis, Mo.); host or cells: human liver
Assay: High-throughput fluorometric cathepsin B assay (Z-F-R-AMC substrate)
Type: biochemical
Settings: cruzain versus cathepsin B IC50
Experimental: A fluorometric high throughput cathepsin B assay for detecting inhibitory activity was developed in 96-well microtiter plate format. Benzyloxy-Phe-Arg-AMC (Z-F-R-AMC; Molecular Probes, Inc., Eugene, Oreg.) was the substrate used in the assay (Km=150 μM). Cathepsin B (EC 3.4.22.1, from human liver) was purchased from Sigma Chemical Company (St. Louis, Mo.) in a stock solution containing 25 μg of the protein in 25 μl buffer (i.e., 20 mM sodium acetate, pH 5.0, and 1 mM EDTA).
The bioassay of the compounds was performed on a Sagian/Beckman Integrated robotic system (Beckman, Fullerton, Calif.). Inhibition of enzyme activity was measured via fluorescent detection. Fluorescence readings were taken at an excitation wavelength of […] (λmax=350 nm) and an emission wavelength of 430 nm (λmax=430 nm) on a BMG FluoStar (BMG, Durham, N.C.). […]
The reaction was initiated by the addition of the cathepsin B (0.46 ng/ml) in the assay buffer containing dithiothreitol (giving a final concentration of 1.5 mM). […] The activity was obtained by observing the end point absorbance reading after quenching. The percentage of inhibition was calculated by dividing the absorbance measured in the presence of inhibitor plus enzyme (inhibited signal) by the absorbance measured in the presence of enzyme alone (full signal) minus the absorbance obtained in the absence of both inhibitors and the enzyme (background). […]

O=C(Nc1ccc(CNC(=O)C(=O)c2ccc(-c3ccccc3)cc2)cc1)Nc1ccc(-c2ccccc2)cc1 [Compound 4]
selectivity over cathepsin B: greater than 20 fold
